Measured values: patent US20110020463A1, “THERAPEUTIC AGENT FOR FIBROMYALGIA SYNDROME AND THERAPEUTIC AGENT FOR PAIN CAUSED BY MUSCLE SPASM” (priority 2008, published 2011)

How the values were obtained:
fibromyalgia syndrome = conditions: human, in vivo
right blepharism = conditions: human, in vivo

Substance: botulinum toxin
- effect on generalized myalgia (fibromyalgia syndrome): no effect
- effect on right blepharism (eyelid) (right blepharism): extremely effective
